Reference: US10921397B2, “Hyperpolarized micro-NMR system and methods” (Memorial Sloan Kettering Cancer Center, priority 2016, dated 2021)

Legend:
LDH-A = assay: Western blot of LDH-A phosphorylation in K562 cells after treatment; type: cell-based; conditions: imatinib treatment, 24 hours
Source text: Imatinib was purchased from Cayman Chemical.

K562 cells [1] = assay: Lactate concentration (pool size) in cell culture media by conventional high-field NMR spectrometer; type: cell-based; conditions: 1 μM imatinib
Description: Each lactate signal was acquired by a conventional high-field NMR spectrometer. All measurements were performed in triplicate. Error bars show the standard deviation.

K562 cells [2] = conditions: 24 hours of drug treatment, concentrations as high as 1 μM
Description: K562 cells were plated with a concentration of 100,000 cells/mL in 10 mL complete RPMI media. […] Two sets of four flasks (two flasks per each sample) were prepared and stored in an incubator for 24 hours. Cell number and viability were checked after 24 hours, and cells were washed with complete RPMI media once and prepared for hyperpolarization experiments.
The cell number and the viability were measured using CELLOMETER Mini cell counter (Nexcelom Bioscience); the cell suspension was mixed at 1:1 ratio with the trypan blue solution before the measurement. For each measurement, the cell suspension was diluted to make its concentration within a range of 0.8-2×10^6/mL.

Cc1ccc(NC(=O)c2ccc(CN3CCN(C)CC3)cc2)cc1Nc1nccc(-c2cccnc2)n1 [imatinib, Imatinib]
phosphorylation of LDH-A (LDH-A): decreased phosphorylation
time required to make a significant change in the lactate pool size (K562 cells [1]): about 12 hours
cell viability (K562 cells [2]): not significantly changed
